Entries after “also recorded” stand apart in the source; their conditions may differ. Read-outs that look alike come from different tables or passages of the source.

A short description of data set [1]: Solubility of Piroxicam with solubilizers. The format is physicochemical. An excerpt: This invention employs a solubilizing agent to dissolve piroxicam in bases for formulation; the piroxicam-solubilizing agent is selected from the class of alkanolamines. […] The monoalkanolamines have from one to four carbon atoms and include methanolamine, ethanolamine, propanolamine and butanolamine. The dialkanolamines have from two to eight carbon atoms and include dimethanolamine, diethanolamine, dipropanolamine and dibutanolamine. The trialkanolamines have from three to twelve carbon atoms and include trimethanolamine, triethanolamine, tripropanolamine and tributanolamine.

The test system of data set [2] is carragenin-induced foot edema. Put plainly: Carragenin-induced rat foot edema test. In kind it is in vivo. Conditions: oral administration, 1 mg./kg. As to the method: The anti-inflammatory activity of the compositions of this invention was determined using the standard carragenin-induced rat foot edema test. [C. A. Winter et al., Proceedings of the Society for Experimental Biology and Medicine, Vol. 111, p. 544 (1962)]. Piroxicam ointment (1%), prepared according to Example 10, was administered topically at a dose level of 100 mg. per rat. The results obtained are presented in the table below (Table 6) in terms of the percent inhibition of edema formation, as compared to the non-drug treated control and the oral administration of piroxicam (1 mg./kg.): […]

For data set [3] the following is noted: words, background; cited from earlier work.
The conditions of data set [4]: At a higher pH than 9.0; cited from earlier work.
For data set [5] the following is noted: cited from earlier work.

With `CN1C(C(=O)Nc2ccccn2)=C(O)c2ccccc2S1(=O)=O` [Piroxicam, N-(2-pyridyl)-2-methyl-4-hydroxy-2H-1,2-benzothiazine-3-carboxamide 1,1-dioxide], the “Solubility of Piroxicam” value turned out to be 60.0 mg/g in data set [1] (Ammonia 10%, solvent: water); 0.01 mg/g in data set [1] (Control (none), no solubilizer, solvent: water); 195 mg/g in data set [1] (Di-isopropanolamine 10%, solvent: water); 1.2 mg/g in data set [1] (Di-isopropyl adipate 10%, solvent: 1:1 water-ethanol); 204 mg/g in data set [1] (Diethanolamine 10%, solvent: water); 2.0 mg/g in data set [1] (Diethyl sebacate 10%, solvent: 1:1 water-ethanol). Also, the “Solubility of Piroxicam” value in data set [1] (Ethanolamine 10%, solvent: water) came to 392 mg/g; in data set [1] (Isopropyl myristate 10%, solvent: 1:1 water-ethanol), 0.4 mg/g; in data set [1] (N-Ethyl-o-crotonotoluidide 10%, solvent: 1:1 water-ethanol), 1.8 mg/g. Further, in data set [2], the “% Inhibition of edema” value was 39.6%. Further, the Liposolubility result in data set [3] is given as “not liposoluble”. For the same compound, in data set [3], the Solubility in water entry is “sparingly soluble in water; also recorded: sparingly soluble in water or any other solvent”. Moreover, the Chemical stability entry in data set [4] was “chemically unstable and may even decompose or deteriorate in quality”. In addition, the Absorption through skin result in data set [5] (compounded in suspension with conventional bases for ointment or cream) is recorded as “poorly absorbed through skin”; in data set [5] (tincture, dissolved in an alcoholic solvent such as ethanol), “will not be absorbed through the skin”.

As to `CN1C(C(=O)Nc2ccccn2)=C(O)c2ccccc2S1(=O)=O` [hydrate], in data set [3], the “Solubility relative to piroxicam” value is given as “less soluble than piroxicam itself”.

The record behind these values is patent publication US4678666A, “Topical anti-inflammatory compositions” (Pfizer Inc., priority 1982, dated 1987).
